The results in this text go back to patent US20150065440A1 (Progen Pharmaceuticals Limited, priority 2007, published 2015).

Each structure is given as a SMILES string. Where a name gives a salt, the structure may show the parent alone. Read-outs that look alike come from different tables or passages of the source.

Test [1] relates to HUVEC proliferation induced by FGF-1. As to the kind of experiment: Growth factor induced endothelial cell proliferation assay, FGF-1. Type of test: cell-based, human. The conditions noted are these: Homo sapiens, HUVEC, 72 h; read-out: FGF-1 (IC50) inhibition of HUVEC proliferation. The text has this: (§1) HUVEC cells were maintained and subcultured according to standard cell culture protocols essentially as described by Lonza. Briefly, cells were maintained in Lonza endothelial growth media (EGM) with recommended supplements and growth factors (VEGF, FGF2, EFG, IGF, hydrocortisone, fetal bovine serum (FBS), ascorbic acid, heparin and gentamicin). Cells were subcultured when they reached 70-80% confluence by trypsinisation and reseeding in fresh growth medium in new culture vessels at 2500 to 5000 cells/cm^2 of vessel surface area. Cell counts were performed using a haemocytometer and viable cells were visualized with trypan blue.
(§2) Medium for the proliferation studies was prepared using EGM with 2% FBS and gentamicin only. In a later study, complete EGM was used for the VEGF groups in an attempt to enhance the proliferative index of VEGF-stimulated groups. For the tube formation assay, complete medium was used with only heparin omitted. Compounds under investigation were weighed out from powder stocks and diluted in PBS to 10 mM stock solutions and stored at −80° C. For experiments, compounds were subsequently diluted in EBM-2 medium (supplemented with 2% FBS and gentamicin) to various working concentration as required.
(§3) In the first of a series of experiments, the assay was further optimized by examining the cell density and growth factor concentration required to induce maximal proliferation by growth factors. Briefly, 100 μL of cells was added to each well at concentrations between 1-3×10^3 per well. Growth factors and test compounds were then added in 50 μL volumes at specified concentrations to obtain a final volume of 200 μL. Following incubation for 70 h, 20 μL of the CellTitre 96® Aqueous One Solution Cell Proliferation Assay (Promega) was added for 2 h prior to reading the absorbance at 490 nm to obtain OD values.

Test [2] has as its target T1, recombinant human heparanase (Homo sapiens, UniProt Q9Y251).
T1 sequence (Q9Y251 158-543 limits assumed): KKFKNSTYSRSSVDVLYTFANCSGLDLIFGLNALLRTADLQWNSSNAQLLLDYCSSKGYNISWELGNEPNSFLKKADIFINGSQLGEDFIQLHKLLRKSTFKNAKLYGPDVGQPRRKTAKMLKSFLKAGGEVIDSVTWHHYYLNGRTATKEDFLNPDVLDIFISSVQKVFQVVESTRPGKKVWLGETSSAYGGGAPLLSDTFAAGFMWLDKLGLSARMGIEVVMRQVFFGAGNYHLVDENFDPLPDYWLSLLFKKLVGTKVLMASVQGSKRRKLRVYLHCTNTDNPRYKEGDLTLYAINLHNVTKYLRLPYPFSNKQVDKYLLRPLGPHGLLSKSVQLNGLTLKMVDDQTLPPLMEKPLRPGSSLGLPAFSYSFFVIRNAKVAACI
T1 sequence (Q9Y251 36-109 limits assumed): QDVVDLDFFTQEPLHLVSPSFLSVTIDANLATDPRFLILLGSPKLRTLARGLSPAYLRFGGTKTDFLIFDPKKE
As to the kind of experiment: Heparanase inhibition assay (fondaparinux cleavage, WST-1). On the technique in general: Formazan colour is commonly taken as a measure of viable cells.
Procedure: In the presence of an inhibitor the catalytic activity of heparanase is reduced, and the amount of disaccharide produced and the optical density of the solution are both decreased. The percent inhibition and IC50 of the inhibitor are determined from measurement of the optical density (OD) over a range of inhibitor concentrations.
Assays were carried out in 40 mM sodium acetate buffer, pH 5.0, as follows. […] A blue colour was developed by incubation of the plates at 60° C. for 60 min. […] The IC50 value for each compound was evaluated and converted into a Ki (inhibition constant) using the expression

In test [3] the test system is pooled normal human plasma. As to the kind of experiment: Anticoagulant activity, APTT. As to conditions: 0.1 mg/mL in normal pooled human plasma. The method, then:
APTT measurements were performed on a STAGO STA-Compact Coagulation Analyser using standard protocols according to the manufacturer's instructions. Unfractionated heparin (UFH) was used as a control.

The target of the next test is T2, VEGF (Homo sapiens, UniProt P15692).
T2 sequence (P15692 207-395): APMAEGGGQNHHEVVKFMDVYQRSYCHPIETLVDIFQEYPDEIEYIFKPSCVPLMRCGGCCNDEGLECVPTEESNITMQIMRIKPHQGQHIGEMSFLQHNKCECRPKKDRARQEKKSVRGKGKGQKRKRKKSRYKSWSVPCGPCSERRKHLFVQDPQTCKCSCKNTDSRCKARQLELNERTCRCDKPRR
As to the kind of experiment: Growth factor binding assay (SPR solution affinity), VEGF. As to conditions: HBS-EP buffer, 25° C. The procedure:
(§4) Binding affinities of compounds for the growth factors FGF-1, FGF-2 and VEGF were measured using a surface plasmon resonance (SPR) based solution affinity assay.^9 Heparin-coated sensorchips used for this assay were prepared via immobilisation of biotinylated BSA-heparin on a streptavidin-coated sensorchip, or via aldehyde coupling using either adipic acid dihydrazide or 1,4-diaminobutane.^9 For each Kd measurement, solutions were prepared containing a fixed concentration of protein and varying concentrations of the ligand in buffer. Ligands binding to FGF-1 and VEGF were measured in HBS-EP buffer (10 mM HEPES, pH 7.4, 150 mM NaCl, 3.0 mM EDTA and 0.005% (v/v) polysorbate 20), while binding to FGF-2 was measured in HBS-EP buffer containing 0.3 M NaCl. Prior to injection, samples were maintained at 4° C. to maximise protein stability. For each assay mixture, 50-200 μL of solution was injected at 5-40 μL/min and the relative binding response measured. All surface binding experiments were performed at 25° C. The surface was regenerated by injection of 40 μL of 4M NaCl at 40 μL/min, followed by injection of 40 μL of buffer at 40 μL/min.
(§5) Sensorgram data were analysed using the BIAevaluation software (BIAcore) and Kd values determined as previously described.^9 Where Kd values were measured in duplicate, the values represent the average of the duplicate measurements.

Another test has as its system HSV-2. As to the kind of experiment: Viral plaque number-reduction assay, HSV-2. As to conditions: Human alphaherpesvirus 2, read-out: HSV-2 IC50. The method, then: (§6) African green monkey kidney (GMK AH1) cells^46 were cultured in Eagle's minimum essential medium (EMEM) supplemented with 2% calf serum, 0.05% Primaton RL substance (Kraft Inc., Norwich, USA) and antibiotics. Human epidermoid carcinoma (HEp-2) cells were cultured in Dulbecco's modified EMEM (DMEM) supplemented with 10% fetal calf serum and antibiotics. […] The RSV strain A-2^50 was used. The RSV stock was prepared as described by Hallak et al.^51 and stored at −70° C. in the presence of 40% sucrose^52.
(§7) The viral infectivity (the plaque number-reduction) assay and the plaque size-reduction assay were carried out as described previously^17. […] Subsequently, the cells were washed with 2 mL of EMEM and overlaid with 1% methylcellulose solution in EMEM. The plaques were visualized by staining with crystal violet solution after 2 (HSV-2) or 3 (HSV-1) days of incubation at 37° C. […] When the compounds were screened for anti-HSV or anti-RSV activity, mixtures of 200 PFU of the virus and the test compound (100 μg/mL) in serum-free EMEM were incubated for 10 min at room temperature before addition to cells and during the entire period of viral infection of cells and the development of viral plaques. In the plaque size-reduction assay, the compounds were added to cells (in methylcellulose overlay medium) after 2 h period of virus infection of cells in the absence of the inhibitor. After 2-3 days of incubation at 37° C., the viral plaques were visualized by staining the cells with 1% solution of crystal violet. For each compound tested, the images of twenty neighboring plaques were captured using a Leica DC300 digital camera attached to a Leitz-Wetzlar Diavert microscope. The area of each plaque was determined using IM500 image software (Leica). Similar protocols were used for RSV, except that the assays were performed in HEp-2 cells and DMEM supplemented with 2% heat-inactivated fetal calf serum was used instead of EMEM.

Test [4] has as its system HUVEC proliferation induced by VEGF. As to the kind of experiment: Growth factor induced endothelial cell proliferation assay, VEGF. Type of test: cell-based, human. The conditions noted are these: Homo sapiens, HUVEC, 72 h; read-out: VEGF (IC50) inhibition of HUVEC proliferation.
From the text: as §1, §2, §3

The test system of test [5] is HUVEC proliferation induced by FGF-2. As to the kind of experiment: Growth factor induced endothelial cell proliferation assay, FGF-2. Type of test: cell-based, human. As to conditions: Homo sapiens, HUVEC, 72 h; read-out: FGF-2 (IC50) inhibition of HUVEC proliferation.
From the text: as §1, §2, §3

For a further test, the target named is FGF-1 (Homo sapiens, UniProt P05230). As to the kind of experiment: Growth factor binding assay (SPR solution affinity), FGF-1. The method, then: as §4, §5
Chain of FGF-1 (P05230 whole entry, species assumed): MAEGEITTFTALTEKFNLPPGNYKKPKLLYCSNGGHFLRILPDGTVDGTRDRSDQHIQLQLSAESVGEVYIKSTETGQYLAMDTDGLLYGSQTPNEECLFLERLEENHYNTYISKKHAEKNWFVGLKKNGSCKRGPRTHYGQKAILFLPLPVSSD
For test [6], the system named is normal pooled human plasma. As to the kind of experiment: Anticoagulant activity, Heptest. As to conditions: 0.1 mg/mL in normal pooled human plasma.
The subject of a further test is RSV. As to the kind of experiment: Viral plaque number-reduction assay, RSV. As to conditions: human respiratory syncytial virus, read-out: RSV IC50. The procedure: as §6, §7
The next test concerns the target FGF-2 (Homo sapiens, UniProt P09038). As to the kind of experiment: Growth factor binding assay (SPR solution affinity), FGF-2. The method, then:
as §4, §5

[7] abbreviates: SPR, HBS-EP buffer, 25° C., read-out: Kd FGF-1.
The mark [8] stands for this setting: SPR, HBS-EP buffer containing 0.3 M NaCl, 25° C., read-out: Kd FGF-2.

Chain of FGF-2 (P09038 143-288, species assumed): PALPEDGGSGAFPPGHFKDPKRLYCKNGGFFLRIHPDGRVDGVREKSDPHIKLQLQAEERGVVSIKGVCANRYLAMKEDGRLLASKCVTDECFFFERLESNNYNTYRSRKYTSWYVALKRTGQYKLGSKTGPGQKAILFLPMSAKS

Consider `CC(C)CCC[C@@H](C)[C@H]1CC[C@H]2[C@@H]3CC[C@H]4C[C@@H](O[C@H]5O[C@H](COS(=O)(=O)O)[C@@H](OS(=O)(=O)O)[C@H](OS(=O)(=O)O)[C@@H]5OS(=O)(=O)O)CC[C@]4(C)[C@H]3CC[C@]12C` [Compound 79, 3β-Cholestanyl 2,3,4,6-tetra-O-sulfonato-α-D-mannopyranoside tetrasodium salt], for which the IC50 in test [1] was 2200 nM; in the test on HSV-2, 0.28 µg/mL; in [4], 2240 nM; in test [5], 2900 nM; in the test on RSV it was 2.9 µg/mL. The Ki in test [2] (read-out: Ki Heparanase, IC50 converted into Ki, fondaparinux 100 μM, pH 5.0) came out at 111 ± 28 nM. The same compound returned an APTT in test [3] of 36.1 s. Besides, the Kd on VEGF stood at 3000 ± 400 nM; on FGF-1 (setting [7]), 3600 ± 600 nM. In test [6], the Heptest is recorded as 23.9 s.
On to `CC(C)CCCC(C)C1CCC2C3CCC4CC(OCc5cn(C6OC(COS(=O)(=O)O)C(OC7OC(COS(=O)(=O)O)C(OS(=O)(=O)O)C(OS(=O)(=O)O)C7OS(=O)(=O)O)C(OS(=O)(=O)O)C6OS(=O)(=O)O)nn5)CCC4(C)C3CCC12C` [Compound 93, 4-(Cholestan-3β-yl-oxymethyl) [1,2,3]triazol-1-yl 2,3,4,6-tetra-O-sulfo-β-D-galactopyranosyl-(1→4)-2,3,6-tri-O-sulfo-β-D-glucopyranoside, heptasodium salt], for which the IC50 in test [1] stood at 2690 nM; in the test with HSV-2, 0.27 µg/mL; in test [4] it was 2620 nM; in test [5], 2430 nM; in the test with RSV, 0.4 µg/mL. In addition, the Ki in test [2] was 30 ± 7 nM. This compound gave an APTT in test [3] of 39.6 s. Also, the Kd at VEGF is 1600 ± 300 nM; on FGF-1, 610 ± 210 nM; at FGF-2, 1800 ± 300 nM. In test [6], this compound showed a Heptest of 25.3 s.
With `CC(C)CCC[C@@H](C)[C@H]1CC[C@H]2[C@@H]3CC[C@H]4C[C@@H](OCc5cn([C@@H]6O[C@H](COS(=O)(=O)O)[C@@H](O[C@H]7O[C@H](COS(=O)(=O)O)[C@@H](OS(=O)(=O)O)[C@H](OS(=O)(=O)O)[C@H]7OS(=O)(=O)O)[C@H](OS(=O)(=O)O)[C@H]6OS(=O)(=O)O)nn5)CC[C@]4(C)[C@H]3CC[C@]12C` [Compound 97, 4-(Cholestan-3β-yl-oxymethyl) [1,2,3]triazol-1-yl 2,3,4,6-tetra-O-sulfo-α-D-glucopyranosyl-(1→4)-2,3,6-tri-O-sulfo-β-D-glucopyranoside, heptasodium salt], the IC50 came out at 4090 nM in [1]; 0.26 µg/mL in the test on HSV-2; 1130 nM in [4]; 4170 nM in [5]; 0.58 µg/mL with RSV. The APTT in test [3] is listed as 40.3 s. For the same compound, the Kd amounted to 1930 ± 230 nM on VEGF, 840 ± 130 nM on FGF-1 (setting [7]) and 3400 ± 300 nM at FGF-2 (setting [8]). The compound further displayed a Heptest in test [6] of 26.7 s.
For the compound `CC(C)CCCC(C)C1CCC2C3CCC4CC(OC5OC(COS(=O)(=O)O)C(OC6OC(COS(=O)(=O)O)C(OS(=O)(=O)O)C(OS(=O)(=O)O)C6OS(=O)(=O)O)C(OS(=O)(=O)O)C5OS(=O)(=O)O)CCC4(C)C3CCC12C` [Compound 102, 3′-Cholestanyl 2,3,4,6-tetra-O-sulfo-α-D-glucopyranosyl-(1→4)-2,3,6-tri-O-sulfo-β-D-glucopyranoside, heptasodium salt], the IC50 in test [1] was 3950 nM; with HSV-2, 0.43 µg/mL; in [4] it was 5170 nM; in test [5], greater than 10000 nM; in the test with RSV, 1.8 µg/mL. This compound also yielded an APTT in [3] of 38.6 s. Moreover, the Kd on VEGF was 1200 ± 400 nM; on FGF-1, 560 ± 30 nM; at FGF-2 (setting [8]), 2200 ± 400 nM. For the same compound, the Heptest in [6] came out at 23.9 s.
`CC(C)CCC[C@@H](C)[C@H]1CC[C@H]2[C@@H]3CCC4CC(O[C@@H]5O[C@H](COS(=O)(=O)O)[C@@H](O[C@@H]6O[C@H](COS(=O)(=O)O)[C@@H](OS(=O)(=O)O)[C@H](OS(=O)(=O)O)[C@H]6OS(=O)(=O)O)[C@H](OS(=O)(=O)O)[C@H]5OS(=O)(=O)O)CC[C@]4(C)[C@H]3CC[C@]12C` (stereo partly drawn) [Compound 107, 3′-Cholestanyl 2,3,4,6-tetra-O-sulfo-β-D-glucopyranosyl-(1→4)-2,3,6-tri-O-sulfo-β-D-glucopyranoside, heptasodium salt]: the IC50 in test [1] came to 5750 nM; in the test with HSV-2 it was 0.43 µg/mL; in test [4] it was 5560 nM; in test [5], 5590 nM; in the test on RSV, 1.9 µg/mL. In test [3], this compound gave an APTT of 38.8 s. Besides, at VEGF, the Kd amounted to 1350 ± 70 nM. This compound showed a Heptest in [6] of 25.3 s.

The term Ki denotes a measure of affinity in units of concentration, obtained from inhibition or displacement. The Kd is the concentration at which binding is half-saturated.
